Several values for one entry are separate records, joined by “and”; a condition that tells them apart may be missing. Equal entries are not always repeated. Each block holds one compound with its values, some of them ahead of it.
Assay: photoluminescence quantum yield (fraction); solvent given as SMILES
[1] = in O=P(c1ccccc1)(c1ccccc1)c1ccccc1Oc1ccccc1P(=O)(c1ccccc1)c1ccccc1

Structure (SMILES): CCC1=C(C)C2=C(c3c4ccccc4cc4ccccc34)c3c(C)c(CC)c(C)n3[B-](F)(F)[N+]2=C1C
photoluminescence quantum yield (in CC#N): 0.579
photoluminescence quantum yield (in CCCCCC): 0.871
photoluminescence quantum yield (in CCO): 0.778
photoluminescence quantum yield (in CN(C)C=O): 0.705
photoluminescence quantum yield (in Cc1ccccc1): 0.806
photoluminescence quantum yield (in ClCCl): 0.799

Structure (SMILES): c1cc2ccc1-c1ccc(cc1)-c1ccc([se]1)-c1ccc(cc1)-c1ccc(cc1)-c1ccc([se]1)-c1ccc(cc1)-c1ccc(cc1)-c1ccc([se]1)-c1ccc(cc1)-c1ccc(cc1)-c1ccc-2[se]1
photoluminescence quantum yield (in C1CCOC1): 0.13

Structure (SMILES): CC1(C)c2ccccc2N(c2ccccc2)c2ccc(-c3ccc(S(=O)(=O)c4ccc(-c5ccc6c(c5)C(C)(C)c5ccccc5N6c5ccccc5)cc4)cc3)cc21
photoluminescence quantum yield [1]: 0.87

Structure (SMILES): C/C(=C\c1ccc(Cl)cc1)c1nc2ccccc2o1
photoluminescence quantum yield (in C1CCCCC1): 0.02
photoluminescence quantum yield (in CO): 0.003

Structure (SMILES): COCCOCCOCCNc1cc2c3c(c(NCCOCCOCCOC)cc4c3c1C(=O)N(CCOCCOCCOC)C4=O)C(=O)N(CCOCCOCCOC)C2=O
photoluminescence quantum yield (in CO): 0.33
photoluminescence quantum yield (in ClC(Cl)Cl): 0.56
photoluminescence quantum yield (in O): 0.039

Structure (SMILES): CCOC(=O)C1=CNC=C(C(=O)OCC)C1c1ccccc1
photoluminescence quantum yield (in C1CCOC1): 0.7
photoluminescence quantum yield (in CO): 0.58

Structure (SMILES): c1ccc(-c2nc(-c3ccccc3)nc(-c3cccc(-n4c5ccccc5c5c6oc7ccccc7c6ccc54)c3)n2)cc1
photoluminescence quantum yield [1]: 0.311

Structure (SMILES): N#Cc1ccc(/C=C/c2c3ccccc3cc3ccccc23)cc1
photoluminescence quantum yield (in CC1CCCCC1): 0.27
photoluminescence quantum yield (in CC#N): 0.003
photoluminescence quantum yield (in CO): 0.029
photoluminescence quantum yield (in Cc1ccccc1): 0.23
photoluminescence quantum yield (in ClC(Cl)Cl): 0.05

Structure (SMILES): F[B-]1(F)n2c(Cl)c(Cl)c(Br)c2C(Cl)=C2C(Br)=C(Cl)C(Cl)=[N+]21
photoluminescence quantum yield (in ClCCl): 0.18

Structure (SMILES): CCn1c2sccc2c2c3nsnc3c3c4ccsc4n(CC)c3c21
photoluminescence quantum yield (in C1CCOC1): 0.51
photoluminescence quantum yield (in CCOC(C)=O): 0.47
photoluminescence quantum yield (in CN(C)C=O): 0.43
photoluminescence quantum yield (in Cc1ccccc1): 0.45
photoluminescence quantum yield (in ClCCl): 0.34

Structure (SMILES): CCCCC(CC)COc1ccc2nc(-c3ccc(-c4ccccc4)s3)sc2c1 (stereo unspecified)
photoluminescence quantum yield (in ClCCl): 0.58

Structure (SMILES): CCCCCCC(CCCCCC)N1C(=O)c2cccc3c(-c4ccc(OC)c5cccc(C)c45)ccc(c23)C1=O
photoluminescence quantum yield (in CCCCCC): 0.34
photoluminescence quantum yield (in CCCCCCCCCCCCCC): 0.34
photoluminescence quantum yield (in CCCCCCCCCCCO): 0.28
photoluminescence quantum yield (in CCCCO): 0.047
photoluminescence quantum yield (in CN(C)C=O): 0.055
photoluminescence quantum yield (in Cc1ccccc1): 0.19
photoluminescence quantum yield (in ClC(Cl)Cl): 0.4

Structure (SMILES): F[B-]1(F)Oc2ccccc2-c2cnc3ccccc3[n+]21
photoluminescence quantum yield (in Cc1ccccc1): 0.086

Structure (SMILES): CCC1(CC)c2cc(B(c3c(C)cc(C)cc3C)c3c(C)cc(C)cc3C)ccc2-c2c1c1c(c3c2C(CC)(CC)c2cc(N(c4ccccc4)c4ccccc4)ccc2-3)C(CC)(CC)c2cc(B(c3c(C)cc(C)cc3C)c3c(C)cc(C)cc3C)ccc2-1
photoluminescence quantum yield (in C1CCOC1): 0.2

Structure (SMILES): N#Cc1cc(C#Cc2c(F)c(F)nc(F)c2F)c(C#Cc2c(F)c(F)nc(F)c2F)cc1C#N
photoluminescence quantum yield (in CC#N): 0.49

Structure (SMILES): CCCCc1ccc(-n2c3c(c4c2c2c(n4-c4ccc(CCCC)cc4)-c4cc(F)ccc4NB2c2ccccc2)B(c2ccccc2)Nc2ccc(F)cc2-3)cc1
photoluminescence quantum yield (in Cc1ccccc1): 0.64

Structure (SMILES): COC(=O)[C@@]12N=N[C@@](C(=O)OC)(C3[C@H]1C3(C)C)[C@H]1[C@@H]2C1(C)C (stereo partly specified)
photoluminescence quantum yield (in CC#N): 0.041

Structure (SMILES): CCCCc1cc(-c2cccc(COC)c2)oc1-c1cccc(COC)c1
photoluminescence quantum yield (in ClC(Cl)Cl): 0.87

Structure (SMILES): COC(=O)c1ccc(-c2cc3ccc4cccc5ccc(c2)c3c45)cc1
photoluminescence quantum yield (in Cc1ccccc1): 0.43

Structure (SMILES): CCCCCCC(CCCCCC)N1C(=O)c2cccc3c(-c4ccc(OC)cc4)ccc(c23)C1=O
photoluminescence quantum yield (in CCCCCC): 0.65
photoluminescence quantum yield (in CCCCCCCCCCCCCC): 0.79
photoluminescence quantum yield (in CCCCCCCCCCCO): 0.83
photoluminescence quantum yield (in CCCCO): 0.83
photoluminescence quantum yield (in CN(C)C=O): 0.82
photoluminescence quantum yield (in Cc1ccccc1): 0.75
photoluminescence quantum yield (in ClC(Cl)Cl): 0.83

Structure (SMILES): CC(C)(C)c1cc(-c2c3cc(c(-c4cc(C(C)(C)C)cc(C(C)(C)C)c4)c4ccc([nH]4)c(-c4ccc([N+](=O)[O-])cc4)c4nc(c(-c5ccc([N+](=O)[O-])cc5)c5ccc2[nH]5)C=C4)N=C3)cc(C(C)(C)C)c1
photoluminescence quantum yield (in ClCCl): 0.0263

Structure (SMILES): Cc1ccc(/C=C/c2ccccc2-[n+]2noc([O-])c2C)cc1
photoluminescence quantum yield (in C1CCCCC1): 0.0019
photoluminescence quantum yield (in CC#N): 0.0019

Structure (SMILES): CC1=[N+]2C(=C(c3ccc(-c4c5ccccc5c(-c5ccccc5)c5ccccc45)cc3)c3ccc(C)n3[B-]2(F)F)C=C1
photoluminescence quantum yield (in CC#N): 0.002
photoluminescence quantum yield (in CCCCCC): 0.204
photoluminescence quantum yield (in CCO): 0.037
photoluminescence quantum yield (in CN(C)C=O): 0.002
photoluminescence quantum yield (in Cc1ccccc1): 0.259
photoluminescence quantum yield (in ClCCl): 0.027

Structure (SMILES): CCCN1/C(=C\c2c(-c3ccc(N(C)C)cc3)c(=O)c2=O)C=Cc2ccccc21
photoluminescence quantum yield (in C1CCCCC1): 0.0262
photoluminescence quantum yield (in Cc1ccccc1): 0.0201
photoluminescence quantum yield (in ClCCl): 0.001

Structure (SMILES): COc1cc(OC)cc(C2=C3C(C)=C(I)C(C)=[N+]3[B-](F)(F)n3c(C)c(I)c(C)c32)c1
photoluminescence quantum yield (in CS(C)=O): 0.03

Structure (SMILES): CCCCCCc1ccc(-n2c3c4cccc(OC)c4nc(-c4ccc(C#N)cc4)c3c3c2c2c(-c4ccc(C#N)cc4)nc4c(OC)cccc4c2n3-c2ccc(CCCCCC)cc2)cc1
photoluminescence quantum yield (in ClC(Cl)Cl): 0.13

Structure (SMILES): COc1cc(N(c2ccc(C=C(C#N)C#N)c(OC)c2)c2ccc(C=C(C#N)C#N)c(OC)c2)ccc1C=C(C#N)C#N
photoluminescence quantum yield (in C1COCCO1): 0.025
photoluminescence quantum yield (in CC#N): 0.047
photoluminescence quantum yield (in CC(C)=O): 0.074
photoluminescence quantum yield (in CCOC(C)=O): 0.166
photoluminescence quantum yield (in CN(C)C=O): 0.026
photoluminescence quantum yield (in CO): 0.043
photoluminescence quantum yield (in Cc1ccccc1): 0.018
photoluminescence quantum yield (in ClC(Cl)Cl): 0.025
photoluminescence quantum yield (in ClCCl): 0.028

Structure (SMILES): Cc1c(OCC(=O)O)cc2c3c([nH]c2c1C)C(=O)CCC3
photoluminescence quantum yield (in C1COCCO1): 0.009
photoluminescence quantum yield (in CC#N): 0.027
photoluminescence quantum yield (in CCO): 0.019
photoluminescence quantum yield (in CS(C)=O): 0.089
photoluminescence quantum yield (in O): 0.013
photoluminescence quantum yield (in c1ccccc1): 0.008

Structure (SMILES): COC(=O)[C@H](Cc1ccccc1)Nc1c(C(C)=O)c(=O)oc2cc(N(C)C)ccc12
photoluminescence quantum yield (in ClCCl): 0.0043

Structure (SMILES): CC[C@H](C)COc1ccc(C2=C3C(C)=CC(C)=[N+]3[B-](F)(F)n3c(C)cc(C)c32)cc1
photoluminescence quantum yield (in ClCCl): 0.87

Structure (SMILES): Cc1cccc(-c2cccc(C)c2)c1
photoluminescence quantum yield (in C1CCCCC1): 0.28

Structure (SMILES): CCCCCCc1ccc(/C=C/c2ccc(CCCCCC)s2)s1
photoluminescence quantum yield (in Cc1ccccc1): 0.051

Structure (SMILES): Cc1cc(C)c(C2=C3C=c4c(c5ccccc5c5ccccc45)=[N+]3[B-](F)(F)n3c2cc2c4ccccc4c4ccccc4c23)c(C)c1
photoluminescence quantum yield (in C1CCCCC1): 0.64
photoluminescence quantum yield (in C1CCOC1): 0.55
photoluminescence quantum yield (in CC#N): 0.55
photoluminescence quantum yield (in Cc1ccccc1): 0.51
photoluminescence quantum yield (in ClCCl): 0.51 and 0.55

Results, then the compound that gave them:

photoluminescence quantum yield (in O): 0.71
Structure (SMILES): CCn1c(-c2ccc(-c3ccc(-c4ccc(-c5n(CC)c6ccccc6[n+]5CC)cc4)c(C)c3)cc2)[n+](CC)c2ccccc21

photoluminescence quantum yield (in C1CCOC1): 0.031
photoluminescence quantum yield (in CCCCCC): 0.895
photoluminescence quantum yield (in ClC(Cl)Cl): 0.204
photoluminescence quantum yield (in ClCCl): 0.029
Structure (SMILES): CN1C(=O)c2cccc3c(-n4c5ccccc5c5ccccc54)ccc(c23)C1=O

photoluminescence quantum yield (in CC#N): 0.114
Structure (SMILES): N#C/C(=C\c1ccc(C#N)cc1)c1nc(-c2ccc(Cl)cc2)c(-c2ccccc2)s1

photoluminescence quantum yield (in ClC(Cl)Cl): 0.36
Structure (SMILES): CC1=c2cc3c(C)c4n(c3cc2=[N+]2C1=Cc1c3ccccc3c(C)n1[B-]2(F)F)[B-](F)(F)[N+]1=C(C)c2ccccc2C1=C4

photoluminescence quantum yield (in ClC(Cl)Cl): 0.7
Structure (SMILES): CCCCN1c2ccccc2Sc2cc(/C=C\c3cc(=O)oc4ccc(C)cc34)ccc21

photoluminescence quantum yield (in ClCCl): 0.43
Structure (SMILES): COc1ccc2cc(/C=C/C3=CC(c4ccccc4)=[O+][B-](F)(F)O3)ccc2c1

photoluminescence quantum yield (in CCO): 0.35
Structure (SMILES): Cc1cc(=O)oc2ccc3ccc(-c4cn(Cc5ccccc5)nn4)cc3c12

photoluminescence quantum yield (in C1CCOC1): 0.65
Structure (SMILES): O=P1(c2ccccc2)C(c2ccc(C(F)(F)F)cc2)=Cc2ccccc21 (stereo unspecified)

photoluminescence quantum yield (in C1CCOC1): 0.23
Structure (SMILES): N#Cc1c(N2CCCCC2)cc(-c2ccc(-c3ccccc3)s2)c2c1CCc1ccccc1-2

photoluminescence quantum yield (in C1COCCO1): 0.29
photoluminescence quantum yield (in CC#N): 0.01
photoluminescence quantum yield (in ClCCl): 0.09
Structure (SMILES): Cc1nc2cc(/C=C/c3ccc(N(C)C)cc3)ccc2nc1-c1ccccc1

photoluminescence quantum yield (in CC#N): 0.037
photoluminescence quantum yield (in CS(C)=O): 0.085
photoluminescence quantum yield (in ClCCl): 0.059
Structure (SMILES): O=[N+]([O-])c1ccc(-c2nc3c(c4c2-c2ccccc2CC4)-c2ccccc2CC3)cc1

photoluminescence quantum yield (in ClCCl): 0.41
Structure (SMILES): CC1=C(C)c2cccc3c2c(cc2nc4ccccc4nc23)O1

photoluminescence quantum yield (in CCO): 0.61
photoluminescence quantum yield (in ClCCl): 0.78
Structure (SMILES): c1cnc(-c2c3ccccc3c(-c3cncnc3)c3ccccc23)nc1

photoluminescence quantum yield (in C1COCCO1): 0.65
Structure (SMILES): CCC(C)(C)c1ccc(-c2ccc(-c3ccccc3)cc2)cc1

photoluminescence quantum yield (in ClC(Cl)Cl): 0.78
Structure (SMILES): N#Cc1nc(N(Cc2ccccc2Cl)Cc2ccccc2Cl)c(C#N)nc1N(Cc1ccccc1Cl)Cc1ccccc1Cl

photoluminescence quantum yield (in ClCCl): 0.65
Structure (SMILES): N#Cc1ccc(/C=C/c2ncc(-c3ccccc3)o2)cc1

photoluminescence quantum yield (in ClC(Cl)Cl): 0.026
Structure (SMILES): CCCCCCn1c2cc(/C=C(\C#N)c3ccccc3)ccc2c2ccc(/C=C(\C#N)c3ccccc3)cc21

photoluminescence quantum yield (in ClC(Cl)Cl): 0.1
photoluminescence quantum yield (in ClCCl): 0.1
Structure (SMILES): COc1ccc(C2=[N+]3C(=Nc4c(-c5ccccc5)c(Br)c(-c5ccc(OC)cc5)n4[B-]3(F)F)C(c3ccccc3)=C2Br)cc1

photoluminescence quantum yield (in ClCCl): 0.4
Structure (SMILES): CCN(CC)c1ccc2c(-c3ccccc3C(=O)O)c3c([o+]c2c1)/C(=C/c1nc(-c2ccccc2)n2ccccc12)CCC3

photoluminescence quantum yield (in CC#N): 0.101
Structure (SMILES): N#C/C(=C\c1ccc(C#N)cc1)c1nc(-c2ccccc2)c(-c2ccccc2)s1

photoluminescence quantum yield (in ClC(Cl)Cl): 0.76
Structure (SMILES): N#Cc1nc(N(Cc2ccccc2)Cc2ccccc2)c(C#N)nc1N(Cc1ccccc1)Cc1ccccc1

photoluminescence quantum yield (in ClCCl): 0.97
Structure (SMILES): O=P1(c2ccccc2)c2cccc3c4c5ccccc5c5ccccc5c4c4ccc1n4c23 (stereo unspecified)

photoluminescence quantum yield (in ClCCl): 0.75
Structure (SMILES): CCN(CC)c1ccc2cc(-c3ccc(-c4ccc(-c5cc6ccc(N(CC)CC)cc6oc5=O)cc4)cc3)c(=O)oc2c1

photoluminescence quantum yield (in ClCCl): 0.16
Structure (SMILES): Fc1ccc(-c2ccc(-c3cc(-c4ccccn4)nc(-c4ccccn4)c3)cc2)c(F)c1

photoluminescence quantum yield (in C1CCOC1): 0.05
Structure (SMILES): CC(C)(C)c1cc2c3c(c1)-c1cccc4c1N(B3N1c3ccccc3Sc3cccc-2c31)c1ccccc1S4
